In patent US5391540A, “Substituted pyridine compounds” (Rohm and Haas Company, priority 1993, dated 1995):

Columns and labels:
Assay type in all cases: in vivo
Barnyardgrass = experiment: Pre-emergent herbicidal activity (Table A); details: Echinochloa crus-galli, pre-emergence, Bygr, 11.2 kg/ha, 10-14 days, read-out: herbicidal rating (% inhibition)
Method in brief: (§1)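 Seeds or vegetative propagules were set on topsoil compacted to 0.95 to 1.27 cm below the pan rim, then covered with soil thoroughly mixed with a known amount of test compound in acetone or water carrier. Ratings follow a scale of percent inhibition per species.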

Cocklebur = experiment: Pre-emergent herbicidal activity (Table A); details: Xanthium strumarium, pre-emergence, Cobu, 11.2 kg/ha, 10-14 days, read-out: herbicidal rating (% inhibition)
Method in brief: as §1

Downy Brome = experiment: Pre-emergent herbicidal activity (Table A); details: Bromus tectorum, pre-emergence, Dobr, 11.2 kg/ha, 10-14 days, read-out: herbicidal rating (% inhibition)
Method in brief: as §1

Morningglory = experiment: Pre-emergent herbicidal activity (Table A); details: Ipomoea, pre-emergence, Mogl, 11.2 kg/ha, 10-14 days, read-out: herbicidal rating (% inhibition)
Method in brief: as §1

Velvetleaf = experiment: Pre-emergent herbicidal activity (Table A); details: Abutilon theophrasti, pre-emergence, Vele, 11.2 kg/ha, 10-14 days, read-out: herbicidal rating (% inhibition)
Method in brief: as §1

Yellow Nutsedge = experiment: Pre-emergent herbicidal activity (Table A); details: Cyperus, pre-emergence, Yens, 11.2 kg/ha, 10-14 days, read-out: herbicidal rating (% inhibition)
Method in brief: as §1

Bygr = experiment: plant injury after spraying emerged plants (Table D); set-up: scale not given here
Description: (§2) Topsoil (silt loam) is sieved through a screen having 1.27 cm openings. […] This mixture is steam sterilized and then placed in aluminum pans 6.985 cm deep having ten holes in the bottom each 0.635 cm in diameter. The soil mixture is compacted to a depth of 1.27 cm. from the top of the pan. A predetermined number of seeds of each of several dicotyledonous and monocotyledonous annual plant species and/or vegetative propagules for the perennial plant species are placed on the soil and pressed into the soil surface. The seeds and/or vegetative propagules are covered with 1.27 cm of a mixture of 50% topsoil and 50% of a mixture of Canadian sphagnum peat moss, vermiculite and a wetting agent. The pans are then placed on a capillary mat on a greenhouse bench and subirrigated as needed.
(§3) In the following Table D the legends used to identify the plant species are the same as those used in the preceding Table B.

Cobu = experiment: as above; set-up: scale not given here
Description: as §2, §3

Corn = experiment: as above; set-up: scale not given here
Description: as §2, §3

Grft = experiment: as above; set-up: scale not given here
Description: as §2, §3

Lacg = experiment: as above; set-up: scale not given here
Description: as §2, §3

Prmi = experiment: as above; set-up: scale not given here
Description: as §2, §3

Rice = experiment: as above; set-up: scale not given here
Description: as §2, §3

Sobe = experiment: as above; set-up: scale not given here
Description: as §2, §3

Whez = experiment: as above; set-up: scale not given here
Description: as §2, §3

Dobr = experiment: as above
Description: Topsoil (silt loam) is sieved through a screen having 1.27 cm openings. In some of the tests the soil was mixed with fertilizer (1225 g/cu. m of 12/5/9 containing isobutylidene diurea), while in other tests the fertilizer was omitted. This mixture is steam sterilized and then placed in aluminum pans 6.985 cm deep having ten holes in the bottom each 0.635 cm in diameter. The soil mixture is compacted to a depth of 1.27 cm. from the top of the pan. A predetermined number of seeds of each of several dicotyledonous and monocotyledonous annual plant species and/or vegetative propagules for the perennial plant species are placed on the soil and pressed into the soil surface. The seeds and/or vegetative propagules are covered with 1.27 cm of a mixture of 50% topsoil and 50% of a mixture of Canadian sphagnum peat moss, vermiculite and a wetting agent. The pans are then placed on a capillary mat on a greenhouse bench and subirrigated as needed. After the plants reach the desired stage (9 to 14 days, 1 to 3 true leaf stage), each pan (except the control pans) is removed to a spraying chamber and sprayed by means of an atomizer, operating at a spray pressure of 170.3 kPa ([…]) at the application rates noted in Table D. In the spray solution is an amount of an emulsifying agent mixture (35% butylamine salt of dodecylbenzenesulfonic acid and 65% tall oil condensed with ethylene oxide in the ratio of 11 mols of ethylene oxide/mol of tall oil) to give a spray solution or suspension. The spray solution or suspension contains a sufficient amount of the candidate chemical in order to give application rates of the active ingredient corresponding to those shown in Table D below while applying a total amount of solution or suspension equivalent to 1870 L/Ha (200 gallons/acre). The pans are returned to the greenhouse and watered as before and the injury to the plants as compared to the control pans is observed at approximately 10-14 days (usually 11 days).
as §3

## COC(=O)c1c(O)nc(C(F)(F)F)c(C(=O)OC)c1CC(C)C [Compound 1, 3,5-pyridinedicarboxylic acid, 2-hydroxy-4-(2-methylpropyl)-6-(trifluoromethyl)-, dimethyl ester]
Barnyardgrass
  inhibition at 11200 g/ha: 0 to 24%
Cocklebur
  inhibition at 11200 g/ha: 0 to 24%
Downy Brome
  inhibition at 11200 g/ha: 0 to 24%
Morningglory
  inhibition at 11200 g/ha: 0 to 24%
Velvetleaf
  inhibition at 11200 g/ha: 0 to 24%
Yellow Nutsedge
  inhibition at 11200 g/ha: 0 to 24%
Bygr; 0.0701 kg/ha
  plant injury rating, Bygr: 0
Bygr; 1.1210 kg/ha
  plant injury rating, Bygr: 1
Cobu; 0.0701 kg/ha
  plant injury rating, Cobu: 0
Cobu; 0.2803 kg/ha
  plant injury rating, Cobu: 0
Cobu; 1.1210 kg/ha
  plant injury rating, Cobu: 0
Cobu; 5.3808 kg/ha
  plant injury rating, Cobu: 4
Corn; 0.0701 kg/ha
  plant injury rating, Corn: 0
Corn; 0.2803 kg/ha
  plant injury rating, Corn: 0
Corn; 1.1210 kg/ha
  plant injury rating, Corn: 2
Corn; 5.3808 kg/ha
  plant injury rating, Corn: 2
Grft; 0.0701 kg/ha
  plant injury rating, Grft: 0
Grft; 0.2803 kg/ha
  plant injury rating, Grft: 0
Lacg; 0.0701 kg/ha
  plant injury rating, Lacg: 3
Lacg; 1.1210 kg/ha
  plant injury rating, Lacg: 3
Lacg; 5.3808 kg/ha
  plant injury rating, Lacg: 3
Prmi; 0.0701 kg/ha
  plant injury rating, Prmi: 0
Prmi; 0.2803 kg/ha
  plant injury rating, Prmi: 0
Prmi; 1.1210 kg/ha
  plant injury rating, Prmi: 2
Prmi; 5.3808 kg/ha
  plant injury rating, Prmi: 3
Rice; 0.0701 kg/ha
  plant injury rating, Rice: 0
Rice; 0.2803 kg/ha
  plant injury rating, Rice: 0
Rice; 1.1210 kg/ha
  plant injury rating, Rice: 0
Sobe; 0.2803 kg/ha
  plant injury rating, Sobe: 2
Sobe; 1.1210 kg/ha
  plant injury rating, Sobe: 1
Sobe; 5.3808 kg/ha
  plant injury rating, Sobe: 3
Whez; 0.0701 kg/ha
  plant injury rating, Whez: 0
Whez; 0.2803 kg/ha
  plant injury rating, Whez: 0
Whez; 1.1210 kg/ha
  plant injury rating, Whez: 0
Whez; 5.3808 kg/ha
  plant injury rating, Whez: 0
Dobr; 0.0701 kg/ha
  plant injury rating, Dobr: 0
Dobr; 0.2803 kg/ha
  plant injury rating, Dobr: 0
Dobr; 1.1210 kg/ha
  plant injury rating, Dobr: 0
Dobr; 5.3808 kg/ha
  plant injury rating, Dobr: 0

## COC(=O)c1c(OC)nc(C(F)(F)F)c(C(=O)n2ccc(F)n2)c1C1CCC1 [Compound 140, 3-pyridinecarboxylic acid, 4-cyclobuty1-5-[(3-fluoro-1H-pyrazo1-1-yl)carbonyl]-2-methoxy-6-(trifluoromethyl)-, methyl ester]
Barnyardgrass
  inhibition at 11200 g/ha: 75 to 100%
Cocklebur
  inhibition at 11200 g/ha: 0 to 24%
Downy Brome
  inhibition at 11200 g/ha: 75 to 100%
Morningglory
  inhibition at 11200 g/ha: 75 to 100%
Velvetleaf
  inhibition at 11200 g/ha: 75 to 100%
Yellow Nutsedge
  inhibition at 11200 g/ha: 0 to 24%
Bygr; 0.2803 kg/ha
  plant injury rating, Bygr: 0
Bygr; 1.1210 kg/ha
  plant injury rating, Bygr: 0
Bygr; 5.6050 kg/ha
  plant injury rating, Bygr: 0
Cobu; 0.2803 kg/ha
  plant injury rating, Cobu: 1
Cobu; 1.1210 kg/ha
  plant injury rating, Cobu: 3
Cobu; 5.6050 kg/ha
  plant injury rating, Cobu: 3
Corn; 0.2803 kg/ha
  plant injury rating, Corn: 2
Corn; 1.1210 kg/ha
  plant injury rating, Corn: 1
Corn; 5.6050 kg/ha
  plant injury rating, Corn: 2
Grft; 0.2803 kg/ha
  plant injury rating, Grft: 0
Grft; 1.1210 kg/ha
  plant injury rating, Grft: 0
Grft; 5.6050 kg/ha
  plant injury rating, Grft: 0
Lacg; 0.2803 kg/ha
  plant injury rating, Lacg: 2
Lacg; 1.1210 kg/ha
  plant injury rating, Lacg: 2
Lacg; 5.6050 kg/ha
  plant injury rating, Lacg: 3
Prmi; 0.2803 kg/ha
  plant injury rating, Prmi: 0
Prmi; 1.1210 kg/ha
  plant injury rating, Prmi: 0
Prmi; 5.6050 kg/ha
  plant injury rating, Prmi: 0
Rice; 0.2803 kg/ha
  plant injury rating, Rice: 0
Rice; 1.1210 kg/ha
  plant injury rating, Rice: 0
Rice; 5.6050 kg/ha
  plant injury rating, Rice: 0
Sobe; 1.1210 kg/ha
  plant injury rating, Sobe: 2
Sobe; 5.6050 kg/ha
  plant injury rating, Sobe: 2
Whez; 0.2803 kg/ha
  plant injury rating, Whez: 0
Whez; 1.1210 kg/ha
  plant injury rating, Whez: 0
Whez; 5.6050 kg/ha
  plant injury rating, Whez: 0
Dobr; 0.2803 kg/ha
  plant injury rating, Dobr: 0
Dobr; 1.1210 kg/ha
  plant injury rating, Dobr: 0
Dobr; 5.6050 kg/ha
  plant injury rating, Dobr: 0

## COC(=O)c1c(OC)nc(C(F)(F)Cl)c(C(=O)OC)c1CC(C)C [Compound 30, 3,5-pyridinedicarboxylic acid, 2-(chlorodifluoromethyl)-6-methoxy-4-(2-methylpropyl)-, dimethyl ester]
Barnyardgrass
  inhibition at 11200 g/ha: 75 to 100%
Cocklebur
  inhibition at 11200 g/ha: 25 to 49%
Downy Brome
  inhibition at 11200 g/ha: 75 to 100%
Morningglory
  inhibition at 11200 g/ha: 75 to 100%
Velvetleaf
  inhibition at 11200 g/ha: 75 to 100%
Yellow Nutsedge
  inhibition at 11200 g/ha: 50 to 74%
Bygr; 0.5605 kg/ha
  plant injury rating, Bygr: 0
Bygr; 1.1210 kg/ha
  plant injury rating, Bygr: 0
Bygr; 2.8025 kg/ha
  plant injury rating, Bygr: 2
Bygr; 5.6050 kg/ha
  plant injury rating, Bygr: 1
Bygr; 8.4075 kg/ha
  plant injury rating, Bygr: 1
Bygr; 11.2100 kg/ha
  plant injury rating, Bygr: 1
Cobu; 0.5605 kg/ha
  plant injury rating, Cobu: 0
Cobu; 1.1210 kg/ha
  plant injury rating, Cobu: 0
Cobu; 2.8025 kg/ha
  plant injury rating, Cobu: 1
Cobu; 5.6050 kg/ha
  plant injury rating, Cobu: 1
Cobu; 8.4075 kg/ha
  plant injury rating, Cobu: 2
Cobu; 11.2100 kg/ha
  plant injury rating, Cobu: 2
Corn; 0.5605 kg/ha
  plant injury rating, Corn: 1
Corn; 1.1210 kg/ha
  plant injury rating, Corn: 1
Corn; 2.8025 kg/ha
  plant injury rating, Corn: 2
Corn; 5.6050 kg/ha
  plant injury rating, Corn: 1
Corn; 8.4075 kg/ha
  plant injury rating, Corn: 1
Corn; 11.2100 kg/ha
  plant injury rating, Corn: 2
Grft; 0.5605 kg/ha
  plant injury rating, Grft: 1
Grft; 1.1210 kg/ha
  plant injury rating, Grft: 0
Grft; 2.8025 kg/ha
  plant injury rating, Grft: 2
Grft; 5.6050 kg/ha
  plant injury rating, Grft: 2
Grft; 8.4075 kg/ha
  plant injury rating, Grft: 1
Grft; 11.2100 kg/ha
  plant injury rating, Grft: 1
Lacg; 0.5605 kg/ha
  plant injury rating, Lacg: 1
Lacg; 1.1210 kg/ha
  plant injury rating, Lacg: 0
Lacg; 2.8025 kg/ha
  plant injury rating, Lacg: 2
Lacg; 5.6050 kg/ha
  plant injury rating, Lacg: 2
Lacg; 8.4075 kg/ha
  plant injury rating, Lacg: 1
Lacg; 11.2100 kg/ha
  plant injury rating, Lacg: 1
Prmi; 0.5605 kg/ha
  plant injury rating, Prmi: 0
Prmi; 1.1210 kg/ha
  plant injury rating, Prmi: 0
Prmi; 2.8025 kg/ha
  plant injury rating, Prmi: 1
Prmi; 5.6050 kg/ha
  plant injury rating, Prmi: 0
Prmi; 8.4075 kg/ha
  plant injury rating, Prmi: 0
Prmi; 11.2100 kg/ha
  plant injury rating, Prmi: 0
Rice; 0.5605 kg/ha
  plant injury rating, Rice: 0
Rice; 1.1210 kg/ha
  plant injury rating, Rice: 0
Rice; 2.8025 kg/ha
  plant injury rating, Rice: 0
Rice; 5.6050 kg/ha
  plant injury rating, Rice: 0
Rice; 8.4075 kg/ha
  plant injury rating, Rice: 0
Rice; 11.2100 kg/ha
  plant injury rating, Rice: 0
Sobe; 0.5605 kg/ha
  plant injury rating, Sobe: 0
Sobe; 1.1210 kg/ha
  plant injury rating, Sobe: 1
Sobe; 2.8025 kg/ha
  plant injury rating, Sobe: 1
Sobe; 5.6050 kg/ha
  plant injury rating, Sobe: 1
Sobe; 8.4075 kg/ha
  plant injury rating, Sobe: 1
Sobe; 11.2100 kg/ha
  plant injury rating, Sobe: 1
Whez; 0.5605 kg/ha
  plant injury rating, Whez: 0
Whez; 1.1210 kg/ha
  plant injury rating, Whez: 0
Whez; 2.8025 kg/ha
  plant injury rating, Whez: 0
Whez; 5.6050 kg/ha
  plant injury rating, Whez: 0
Whez; 8.4075 kg/ha
  plant injury rating, Whez: 0
Whez; 11.2100 kg/ha
  plant injury rating, Whez: 0
Dobr; 0.5605 kg/ha
  plant injury rating, Dobr: 0
Dobr; 1.1210 kg/ha
  plant injury rating, Dobr: 0
Dobr; 2.8025 kg/ha
  plant injury rating, Dobr: 0
Dobr; 5.6050 kg/ha
  plant injury rating, Dobr: 0
Dobr; 8.4075 kg/ha
  plant injury rating, Dobr: 0
Dobr; 11.2100 kg/ha
  plant injury rating, Dobr: 0
